Our source for the IC50 values is patent US20140163026A1, “8-ETHYL-6-(ARYL)PYRIDO[2,3-D]PYRIMIDIN-7(8H)-ONES FOR THE TREATMENT OF NERVOUS SYSTEM DISORDERS AND CANCER” (Afraxis Holdings, Inc., priority 2011, published 2014).

A value given as a limit tells only on which side of the number the result lay.

A word on the IC50: it is the concentration needed to halve the response being measured.

What all share (type): biochemical
In one assay the target is PAK2 (PAK65) (Homo sapiens, UniProt Q13177). The assay is described as follows: In vitro PAK inhibition assay (SelectScreen, Ser/Thr 20 peptide). Summed up: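 FRET-based peptide cleavage assay: 0.29-6 ng PAK2 and 2 μM Ser/Thr 20 peptide in 50 mM HEPES pH 7.5, 10 mM MgCl2, 1 mM EGTA, 0.01% BRIJ-35, 1% DMSO final. Kinase reaction 60 min at room temperature, then 60 min development; 10-point 3-fold titrations, percent phosphorylation from fluorescence.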

Another assay deals with PAK4 (Homo sapiens, UniProt O96013). The description is as above. In a few lines:
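FRET-based Ser/Thr 20 peptide phosphorylation: 0.1-0.75 ng PAK4, 2 μM peptide in 50 mM HEPES pH 7.5, 10 mM MgCl2, 1 mM EGTA, 0.01% BRIJ-35, 1% DMSO; 60 min at room temperature, then 60 min protease development. 10-point 3-fold titrations; IC50 from sigmoidal fit.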

The target of another assay is PAK3 (Homo sapiens, UniProt O75914). The description is as above. Summed up: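 PAK3 phosphorylation of Ser/Thr 20 peptide in 50 mM HEPES pH 7.5, 0.01% BRIJ-35, 10 mM MgCl2, 1 mM EGTA, 1% DMSO final; 60 min at room temperature, then 60 min development reaction with fluorescence read-out. 10-point 3-fold titrations; percent phosphorylation from 0% and 100% phosphopeptide controls.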

The target in another assay is PAK1 (Homo sapiens, UniProt Q13153). In words: In vitro PAK inhibition assay (SelectScreen, Ser/Thr 19 peptide). Summed up: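 Kinase reaction ran in 50 mM HEPES pH 7.5, 0.01% BRIJ-35, 10 mM MgCl2, 1 mM EGTA with Ser/Thr 19 peptide for 60 min at room temperature, followed by 60 min protease development. Fluorescence gave percent phosphorylation. Compounds were tested as 10-point, 3-fold titrations in 1% DMSO final.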
Sequence of PAK1 (Q13153 whole entry): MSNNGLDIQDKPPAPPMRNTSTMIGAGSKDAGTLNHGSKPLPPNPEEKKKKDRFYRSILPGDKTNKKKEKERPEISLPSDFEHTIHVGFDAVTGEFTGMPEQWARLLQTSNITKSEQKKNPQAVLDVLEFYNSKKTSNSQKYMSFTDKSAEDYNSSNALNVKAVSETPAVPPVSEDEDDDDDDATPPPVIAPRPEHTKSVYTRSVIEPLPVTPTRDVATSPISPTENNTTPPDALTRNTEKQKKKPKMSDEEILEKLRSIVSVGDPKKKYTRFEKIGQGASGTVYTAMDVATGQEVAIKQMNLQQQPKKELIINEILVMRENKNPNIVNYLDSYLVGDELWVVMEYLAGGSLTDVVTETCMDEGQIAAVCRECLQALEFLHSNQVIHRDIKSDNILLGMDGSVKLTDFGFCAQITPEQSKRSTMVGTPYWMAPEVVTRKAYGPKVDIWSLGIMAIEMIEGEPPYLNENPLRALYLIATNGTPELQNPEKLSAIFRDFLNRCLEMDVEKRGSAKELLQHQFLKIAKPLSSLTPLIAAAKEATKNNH

Sequence of PAK4 (O96013 whole entry): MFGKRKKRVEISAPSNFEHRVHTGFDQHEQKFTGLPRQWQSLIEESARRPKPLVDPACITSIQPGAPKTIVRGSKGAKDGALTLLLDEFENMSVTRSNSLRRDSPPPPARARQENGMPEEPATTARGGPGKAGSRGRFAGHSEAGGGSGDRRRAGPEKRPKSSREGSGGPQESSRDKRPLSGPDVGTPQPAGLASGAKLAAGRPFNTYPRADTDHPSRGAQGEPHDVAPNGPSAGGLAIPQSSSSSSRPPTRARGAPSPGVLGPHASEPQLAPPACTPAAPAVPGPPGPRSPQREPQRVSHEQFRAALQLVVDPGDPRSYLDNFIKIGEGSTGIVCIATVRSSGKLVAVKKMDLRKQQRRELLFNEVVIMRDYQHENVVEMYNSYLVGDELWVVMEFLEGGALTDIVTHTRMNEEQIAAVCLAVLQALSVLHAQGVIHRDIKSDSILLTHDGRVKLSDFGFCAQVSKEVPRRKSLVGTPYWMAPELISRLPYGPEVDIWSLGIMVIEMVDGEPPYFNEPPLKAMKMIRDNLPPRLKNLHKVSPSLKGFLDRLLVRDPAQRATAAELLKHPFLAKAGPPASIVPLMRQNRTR
Sequence of PAK3 (O75914 whole entry): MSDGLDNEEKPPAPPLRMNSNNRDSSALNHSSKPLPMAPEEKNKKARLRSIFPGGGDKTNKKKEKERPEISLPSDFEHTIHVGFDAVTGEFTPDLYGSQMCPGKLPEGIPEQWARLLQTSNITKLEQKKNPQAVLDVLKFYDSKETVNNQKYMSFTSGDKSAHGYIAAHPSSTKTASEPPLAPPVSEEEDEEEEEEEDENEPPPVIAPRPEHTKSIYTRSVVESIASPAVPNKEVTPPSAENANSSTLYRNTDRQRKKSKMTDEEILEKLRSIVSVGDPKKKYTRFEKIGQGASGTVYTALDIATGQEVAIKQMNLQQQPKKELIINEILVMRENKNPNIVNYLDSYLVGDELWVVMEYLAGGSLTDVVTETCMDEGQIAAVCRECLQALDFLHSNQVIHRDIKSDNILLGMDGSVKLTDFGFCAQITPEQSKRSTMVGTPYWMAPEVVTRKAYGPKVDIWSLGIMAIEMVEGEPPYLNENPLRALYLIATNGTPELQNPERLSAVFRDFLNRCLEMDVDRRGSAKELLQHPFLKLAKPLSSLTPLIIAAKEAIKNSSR
Sequence of PAK2 (PAK65) (Q13177 whole entry): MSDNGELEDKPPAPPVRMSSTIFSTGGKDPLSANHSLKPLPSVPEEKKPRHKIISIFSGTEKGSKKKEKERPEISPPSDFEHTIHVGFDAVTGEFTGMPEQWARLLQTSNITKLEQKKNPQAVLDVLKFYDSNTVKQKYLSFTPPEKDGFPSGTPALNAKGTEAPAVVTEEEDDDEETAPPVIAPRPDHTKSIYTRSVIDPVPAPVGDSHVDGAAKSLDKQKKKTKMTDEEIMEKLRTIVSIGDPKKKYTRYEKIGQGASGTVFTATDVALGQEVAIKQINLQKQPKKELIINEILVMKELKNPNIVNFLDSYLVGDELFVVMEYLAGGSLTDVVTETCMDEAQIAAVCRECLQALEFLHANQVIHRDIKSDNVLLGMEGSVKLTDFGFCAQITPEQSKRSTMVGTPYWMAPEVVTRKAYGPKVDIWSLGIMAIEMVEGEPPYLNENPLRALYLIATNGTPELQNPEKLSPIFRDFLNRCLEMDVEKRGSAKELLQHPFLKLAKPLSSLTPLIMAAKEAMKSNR

As to `CCn1c(=O)c(-c2ccc(-c3ccco3)cc2Cl)cc2cnc(Nc3ccc(N4CCN(C)CC4)cc3)nc21`, the half-inhibitory concentration (IC50) against PAK2 (PAK65) was < 50 nM; at PAK4, ≥ 5000 nM; on PAK3, < 50 nM; at PAK1, < 50 nM.

`CCn1c(=O)c(-c2ccc(-c3ccsc3)cc2Cl)cc2cnc(Nc3ccc(N4CCN(C)CC4)cc3)nc21`: the IC50 is < 50 nM at PAK2 (PAK65), ≥ 5000 nM against PAK4, < 50 nM against PAK3 and < 50 nM against PAK1.

As to `CCn1c(=O)c(-c2ccc(-c3ccc(C)s3)cc2Cl)cc2cnc(Nc3ccc(N4CCN(C)CC4)cc3)nc21`, the IC50 at PAK2 (PAK65) is < 50 nM; at PAK4 it was ≥ 5000 nM; on PAK3, 50 to 500 nM; against PAK1, < 50 nM.

Take `CCN1CCC(c2ccc(Nc3ncc4cc(-c5ccc(-c6cccnc6C)cc5Cl)c(=O)n(CC)c4n3)cc2F)CC1`: the IC50 at PAK2 (PAK65) is 50 to 500 nM; against PAK4, ≥ 5000 nM; against PAK3 it was 50 to 500 nM; against PAK1, < 50 nM.

Turning to `CCn1c(=O)c(-c2ccc(-c3ccc(F)nc3C)cc2Cl)cc2cnc(Nc3ccc(C4CCN(C)CC4)cc3)nc21`, the IC50 is 50 to 500 nM at PAK2 (PAK65), ≥ 5000 nM on PAK4, 50 to 500 nM against PAK3 and < 50 nM against PAK1.

With `CCN1CCC(c2ccc(Nc3ncc4cc(-c5ccc(-c6cccnc6F)cc5Cl)c(=O)n(CC)c4n3)cc2F)CC1`, the IC50 is < 50 nM on PAK2 (PAK65), 500 to 5000 nM against PAK4, < 50 nM at PAK3 and < 50 nM at PAK1.

As to `CCN1CCC(c2ccc(Nc3ncc4cc(-c5ccc(-c6noc(C)n6)cc5Cl)c(=O)n(CC)c4n3)cc2F)CC1`, the IC50 on PAK2 (PAK65) is < 50 nM; against PAK4, ≥ 5000 nM; against PAK3, < 50 nM; against PAK1 it was < 50 nM.

Regarding `CCN1CCC(c2ccc(Nc3ncc4cc(-c5ccc(-c6ccc(C)nc6F)cc5Cl)c(=O)n(CC)c4n3)cc2F)CC1`, the IC50 at PAK2 (PAK65) was 50 to 500 nM; on PAK4, ≥ 5000 nM; against PAK3, 50 to 500 nM; on PAK1 it was 50 to 500 nM.

Turning to `CCn1c(=O)c(-c2ccc(-c3noc(C)n3)cc2Cl)cc2cnc(Nc3ccc(C4CCN(C(C)C)CC4)cc3)nc21`, the IC50 is < 50 nM against PAK2 (PAK65), 500 to 5000 nM at PAK4, < 50 nM against PAK3 and < 50 nM against PAK1.

For `CCn1c(=O)c(-c2ccc(-c3ccnc(C)c3)cc2Cl)cc2cnc(Nc3ccc(C4CCN(C)CC4)c(F)c3)nc21`, the IC50 against PAK2 (PAK65) was < 50 nM; at PAK4, ≥ 5000 nM; at PAK3, 50 to 500 nM; against PAK1 it was < 50 nM.

In the case of `Cc1ncccc1-c1ccc(-c2cc3cnc(Nc4ccc(C5CCN(C)CC5)cc4)nc3n(C)c2=O)c(Cl)c1`, the half-maximal inhibitory concentration (IC50) is < 50 nM at PAK2 (PAK65), ≥ 5000 nM against PAK4, 50 to 500 nM against PAK3 and < 50 nM on PAK1.

As for `CCN1CCC(c2ccc(Nc3ncc4cc(-c5ccc(-c6ccnc(C)c6)cc5Cl)c(=O)n(CC)c4n3)cc2F)CC1`, the half-maximal inhibitory concentration (IC50) at PAK2 (PAK65) was < 50 nM; on PAK4, 500 to 5000 nM; on PAK3 it was < 50 nM; against PAK1, < 50 nM.

As to `CCn1c(=O)c(-c2ccc(-c3noc(C)n3)cc2Cl)cc2cnc(Nc3ccc(C4CCN(C)CC4)c(F)c3)nc21`, the IC50 is < 50 nM at PAK2 (PAK65), 500 to 5000 nM against PAK4, < 50 nM against PAK3 and < 50 nM at PAK1.

Take `CCn1c(=O)c(-c2ccc(-c3ccc(C)nc3F)cc2Cl)cc2cnc(Nc3ccc(C4CCN(C)CC4)c(F)c3)nc21`: the IC50 on PAK2 (PAK65) lay within 50 to 500 nM; against PAK4 it was 500 to 5000 nM; at PAK3 it was 50 to 500 nM; on PAK1 it was 50 to 500 nM.

`CCn1c(=O)c(-c2ccc(-c3ccc(F)nc3C)cc2Cl)cc2cnc(Nc3ccc(C4CCN(C)CC4)c(F)c3)nc21`: the IC50 on PAK2 (PAK65) is 50 to 500 nM; at PAK4, ≥ 5000 nM; on PAK3 it was 50 to 500 nM; on PAK1, 50 to 500 nM.

Take `CCn1c(=O)c(-c2ccc(-c3ccnc(C(=O)NC)c3)cc2Cl)cc2cnc(Nc3ccc(C4CCN5CCCC5C4)cc3)nc21` (centres unmarked): the IC50 is 50 to 500 nM against PAK2 (PAK65), ≥ 5000 nM against PAK4, 50 to 500 nM against PAK3 and 50 to 500 nM at PAK1.

On to `CCn1c(=O)c(-c2ccc(-c3cnc(C)s3)cc2Cl)cc2cnc(Nc3ccc(CCN(C)C)cc3)nc21`, for which the IC50 against PAK2 (PAK65) is < 50 nM; on PAK4 it was 500 to 5000 nM; against PAK3 it was < 50 nM; against PAK1 it was < 50 nM.

As for `Cc1ncccc1-c1ccc(-c2cc3cnc(Nc4ccc(CCN(C)C)cc4)nc3n(C)c2=O)c(Cl)c1`, the half-inhibitory concentration (IC50) on PAK2 (PAK65) was 50 to 500 nM; on PAK4, ≥ 5000 nM; against PAK3 it was 50 to 500 nM; on PAK1, < 50 nM.

On to `CCN1CCC(c2ccc(Nc3ncc4cc(-c5ccc(-c6noc(C)n6)cc5Cl)c(=O)n(C)c4n3)cc2)CC1`, for which the IC50 is < 50 nM at PAK2 (PAK65), ≥ 5000 nM against PAK4, < 50 nM at PAK3 and < 50 nM at PAK1.

Take `Cc1nc(-c2ccc(-c3cc4cnc(Nc5ccc(CCN(C)C)cc5)nc4n(C)c3=O)c(Cl)c2)no1`: the IC50 against PAK2 (PAK65) is < 50 nM; against PAK4 it was ≥ 5000 nM; against PAK3, < 50 nM; against PAK1, < 50 nM.

With `Cc1ncc(-c2ccc(-c3cc4cnc(Nc5ccc(C6CCN(C)CC6)cc5)nc4n(C)c3=O)c(Cl)c2)s1`, the IC50 is < 50 nM against PAK2 (PAK65), ≥ 5000 nM against PAK4, 50 to 500 nM at PAK3 and < 50 nM against PAK1.

In the case of `Cc1ncc(-c2ccc(-c3cc4cnc(Nc5ccc(CCN(C)C)cc5)nc4n(C)c3=O)c(Cl)c2)s1`, the IC50 at PAK2 (PAK65) was < 50 nM; against PAK4, ≥ 5000 nM; against PAK3, < 50 nM; at PAK1, < 50 nM.

For the compound `CCn1c(=O)c(-c2ccc(-c3ccc(C)nc3)cc2Cl)cc2cnc(Nc3ccc(C4CCN5CCCC5C4)cc3)nc21` (centres unmarked), the IC50 on PAK2 (PAK65) is < 50 nM; at PAK4 it was 500 to 5000 nM; at PAK3, 50 to 500 nM; at PAK1, < 50 nM.

For `CCn1c(=O)c(-c2ccc(-c3ccnc(C)c3)cc2Cl)cc2cnc(Nc3ccc(C4CCN5CCCC5C4)cc3)nc21` (centres unmarked), the IC50 at PAK2 (PAK65) is 50 to 500 nM; against PAK4 it was ≥ 5000 nM; on PAK3, 50 to 500 nM; against PAK1, < 50 nM.

As to `CCn1c(=O)c(-c2ccc(-c3cnc(C)s3)cc2Cl)cc2cnc(Nc3ccc(C4CCN5CCCC5C4)cc3)nc21` (centres unmarked), the IC50 is < 50 nM against PAK2 (PAK65), 500 to 5000 nM against PAK4, < 50 nM at PAK3 and < 50 nM on PAK1.

`CCN1CCC(c2ccc(Nc3ncc4cc(-c5ccc(-c6cccnc6C)cc5Cl)c(=O)n(C)c4n3)cc2)CC1`: the IC50 against PAK2 (PAK65) is 50 to 500 nM; against PAK4, ≥ 5000 nM; at PAK3 it was 50 to 500 nM; at PAK1, < 50 nM.

As for `CNC(=O)c1cc(-c2ccc(-c3cc4cnc(Nc5ccc(C6CCN(C)CC6)cc5)nc4n(C)c3=O)c(Cl)c2)ccn1`, the IC50 is 50 to 500 nM against PAK2 (PAK65), ≥ 5000 nM on PAK4, 500 to 5000 nM on PAK3 and 50 to 500 nM against PAK1.

As for `CNC(=O)c1cc(-c2ccc(-c3cc4cnc(Nc5ccc(CCN(C)C)cc5)nc4n(C)c3=O)c(Cl)c2)ccn1`, the IC50 at PAK2 (PAK65) was 50 to 500 nM; at PAK4, ≥ 5000 nM; at PAK3, 500 to 5000 nM; on PAK1 it was 50 to 500 nM.

Consider `CNC(=O)c1cc(-c2ccc(-c3cc4cnc(Nc5ccc(C6CCNCC6)cc5)nc4n(C)c3=O)c(Cl)c2)ccn1`, for which the IC50 lay within 50 to 500 nM against PAK2 (PAK65), 500 to 5000 nM against PAK4, 50 to 500 nM on PAK3 and 50 to 500 nM against PAK1.

For the compound `CN1CCC(c2ccc(Nc3ncc4cc(-c5ccc(-c6cccnc6F)cc5Cl)c(=O)n(C)c4n3)cc2)CC1`, the IC50 against PAK2 (PAK65) was < 50 nM; against PAK4, ≥ 5000 nM; on PAK3, < 50 nM; at PAK1 it was < 50 nM.

In the case of `CN(C)CCc1ccc(Nc2ncc3cc(-c4ccc(-c5cccnc5F)cc4Cl)c(=O)n(C)c3n2)cc1`, the IC50 against PAK2 (PAK65) was < 50 nM; on PAK4, 500 to 5000 nM; at PAK3 it was < 50 nM; on PAK1, < 50 nM.

`CCn1c(=O)c(-c2ccc(-c3ccc(F)nc3C)cc2Cl)cc2cnc(Nc3ccc(C4CCNCC4)c(F)c3)nc21`: the concentration for half-maximal inhibition (IC50) is 50 to 500 nM at PAK2 (PAK65), ≥ 5000 nM against PAK4, 50 to 500 nM at PAK3 and 50 to 500 nM against PAK1.

Turning to `CCn1c(=O)c(-c2ccc(-c3noc(C)n3)cc2Cl)cc2cnc(Nc3ccc(CCN4CCCC4)cc3)nc21`, the half-inhibitory concentration (IC50) against PAK2 (PAK65) is < 50 nM; against PAK4, 500 to 5000 nM; against PAK3 it was < 50 nM; against PAK1, < 50 nM.

Take `CCn1c(=O)c(-c2ccc(-c3cccnc3C)cc2Cl)cc2cnc(Nc3ccc(CCN4CCCC4)cc3)nc21`: the IC50 against PAK2 (PAK65) is < 50 nM; on PAK4 it was ≥ 5000 nM; against PAK3, 50 to 500 nM; against PAK1, < 50 nM.

Take `CCn1c(=O)c(-c2ccc(-c3cccnc3F)cc2Cl)cc2cnc(Nc3ccc(CCN4CCOCC4)cc3)nc21`: the IC50 was 50 to 500 nM at PAK2 (PAK65), ≥ 5000 nM against PAK4, 50 to 500 nM on PAK3 and 50 to 500 nM against PAK1.
